Assays:
Format in all cases: in vivo
Morningglory [1] = test: Post-emergent herbicidal test; also: ranges in brackets are in %
How it was run: (§1)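 Spray application to emerged plants aged 2–3 weeks, using the active ingredient at the intended test rate in a surfactant-containing solution or suspension.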

Smartweed = test: Post-emergent herbicidal test; also: ranges in brackets are in %
How it was run: as §1

Cocklebur [2] = test: Post-emergent herbicidal test; also: ranges in brackets are in %
How it was run: as §1

Lambsquarters [3] = test: Post-emergent herbicidal test; also: ranges in brackets are in %
How it was run: as §1

Canada Thistle [4] = test: Post-emergent herbicidal test; details: 4 WAT, 11.2 kg/h; also: ranges in brackets are in %
How it was run: as §1

Johnsongrass = test: Post-emergent herbicidal test; details: 4 WAT, 11.2 kg/h; also: ranges in brackets are in %
How it was run: as §1

Quackgrass = test: Post-emergent herbicidal test; details: 4 WAT, 11.2 kg/h; also: ranges in brackets are in %
How it was run: as §1

Velvetleaf [5] = test: Post-emergent herbicidal test; also: ranges in brackets are in %
How it was run: as §1

Downy Brome [6] = test: Post-emergent herbicidal test; also: ranges in brackets are in %
How it was run: as §1

Barnyardgrass [7] = test: Post-emergent herbicidal test; also: ranges in brackets are in %
How it was run: as §1

Yellow Nutsedge [8] = test: Post-emergent herbicidal test; details: 4 WAT, 11.2 kg/h; also: ranges in brackets are in %
How it was run: as §1

[9] = test system: mixture of Kentucky Bluegrass, Creeping Red Fescue and Chewings Fescue; test: Growth regulation of lawn grasses (Table VIII)
Protocol: The compound of Example Number 3 was tested on various lawn grasses as follows. A mixture of Kentucky Bluegrass, Creeping Red Fescue and Chewings Fescue were planted in a good grade of top soil in plastic pots. Seven to ten days after germination, the plants were treated with the active ingredient to which a surfactant had been added by spraying the plants until they were wet with various concentrations.

Wheat = test: Post-emergent herbicidal test; also: ranges in brackets are in %
Protocol: (§2) The post-emergent tests were conducted as follows:
(§3) The active ingredients are applied in spray form to two or three week old specimens of various plant species. The spray, a solution or wettable powder suspension containing the appropriate rate of active ingredient to give the desired test rate and a surfactant, is applied to the plants.

Soybean = test: Post-emergent herbicidal test; also: ranges in brackets are in %
Protocol: as §2, §3

Sorghum = test: Post-emergent herbicidal test; also: ranges in brackets are in %
Protocol: as §2, §3

Wild Buckwheat = test: Post-emergent herbicidal test; also: ranges in brackets are in %
Protocol: as §2, §3

Panicum Spp. = test: Post-emergent herbicidal test; also: ranges in brackets are in %
Protocol: as §2, §3

Rice = test: Post-emergent herbicidal test; also: ranges in brackets are in %
Protocol: as §2, §3

Sugarbeet = test: Post-emergent herbicidal test; also: ranges in brackets are in %
Protocol: as §2, §3

Hemp Sesbania = test: Post-emergent herbicidal test; also: ranges in brackets are in %
Protocol: as §2, §3

Crabgrass = test: Post-emergent herbicidal test; also: ranges in brackets are in %
Protocol: as §2, §3

Morningglory [10] = test: Pre-emergent herbicidal test; also: ranges in brackets are in %
How it was run: (§4)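 Test compound was delivered by thorough mixing into the soil covering pressed-in seeds or vegetative propagules, with each species then given a herbicidal rating from percent injury.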

Cocklebur [11] = test: Pre-emergent herbicidal test; also: ranges in brackets are in %
How it was run: as §4

Lambsquarters [12] = test: Pre-emergent herbicidal test; also: ranges in brackets are in %
How it was run: as §4

Canada Thistle [13] = test: Pre-emergent herbicidal test; details: 2 WAT, 11.2 kg/h; also: ranges in brackets are in %
How it was run: as §4

Velvetleaf [14] = test: Pre-emergent herbicidal test; also: ranges in brackets are in %
How it was run: as §4

Downy Brome [15] = test: Pre-emergent herbicidal test; also: ranges in brackets are in %
How it was run: as §4

Barnyardgrass [16] = test: Pre-emergent herbicidal test; also: ranges in brackets are in %
How it was run: as §4

Yellow Nutsedge [17] = test: Pre-emergent herbicidal test; details: 2 WAT, 11.2 kg/h; also: ranges in brackets are in %
How it was run: as §4

cheyenne wheat = test: Growth regulation of wheat (Table XI)
Text: Table XI summarizes observations made when the compound of Example Number 3 was applied to cheyenne wheat.

harber barley = test: Growth regulation of barley (Table X)
Text: Table X, below, summarizes observations made when the compound of Example Number 3 was applied to harber barley.

[18] = time of treatment 42 days, 10 ppm, 3 weeks after treatment
[19] = time of treatment 42 days, 50 ppm, 3 weeks after treatment
[20] = time of treatment 42 days, 250 ppm, 3 weeks after treatment

COC(=O)c1ccccc1-c1cc(-c2cccc(C(F)(F)F)c2)no1 [Example 3, Methyl 2-[3-[3-(Trifluoromethyl)-Phenyl]-5-Isoxazolyl]Benzoate]
3 (75-100): herbicidal rating (Morningglory [10]; 4 WAT, 5.60 kg/h) | herbicidal rating (Lambsquarters [12]; 2 WAT, 11.2 kg/h) | herbicidal rating (Canada Thistle [13]) | herbicidal rating (Barnyardgrass [16]; 2 WAT, 11.2 kg/h) | herbicidal rating (Barnyardgrass [16]; 4 WAT, 1.12 kg/h) | herbicidal rating (Barnyardgrass [16]; 4 WAT, 5.60 kg/h)
80 % of Control: Plant Height (cheyenne wheat; time of treatment 15 days, 250 ppm, 3 weeks after treatment)
3 (75-99): herbicidal rating (Quackgrass) | herbicidal rating (Barnyardgrass [7]; 4 WAT, 11.2 kg/h)
2 (50-74): herbicidal rating (Morningglory [1]; 4 WAT, 11.2 kg/h) | herbicidal rating (Cocklebur [2]; 4 WAT, 11.2 kg/h) | herbicidal rating (Canada Thistle [4]) | herbicidal rating (Johnsongrass) | herbicidal rating (Velvetleaf [5]; 4 WAT, 11.2 kg/h) | herbicidal rating (Downy Brome [6]; 4 WAT, 11.2 kg/h) | herbicidal rating (Morningglory [10]; 2 WAT, 11.2 kg/h) | herbicidal rating (Morningglory [10]; 4 WAT, 1.12 kg/h) | herbicidal rating (Cocklebur [11]; 2 WAT, 11.2 kg/h) | herbicidal rating (Cocklebur [11]; 4 WAT, 5.60 kg/h) | herbicidal rating (Lambsquarters [12]; 4 WAT, 5.60 kg/h) | herbicidal rating (Velvetleaf [14]; 2 WAT, 11.2 kg/h) | herbicidal rating (Velvetleaf [14]; 4 WAT, 5.60 kg/h) | herbicidal rating (Downy Brome [15]; 2 WAT, 11.2 kg/h) | herbicidal rating (Downy Brome [15]; 4 WAT, 5.60 kg/h) | herbicidal rating (Yellow Nutsedge [17])
97 % of Control: Plant Height (harber barley; time of treatment 16 days, 250 ppm, 6 weeks after treatment)
102 % of Control: Height ([9]; 10 ppm, 3 weeks after treatment)
1 (25-49): herbicidal rating (Morningglory [1]; 2 WAT, 1.12 kg/h) | herbicidal rating (Morningglory [1]; 4 WAT, 5.60 kg/h) | herbicidal rating (Smartweed; 2 WAT, 1.12 kg/h) | herbicidal rating (Smartweed; 4 WAT, 5.60 kg/h) | herbicidal rating (Cocklebur [2]; 2 WAT, 1.12 kg/h) | herbicidal rating (Cocklebur [2]; 4 WAT, 5.60 kg/h) | herbicidal rating (Lambsquarters [3]; 2 WAT, 1.12 kg/h) | herbicidal rating (Lambsquarters [3]; 4 WAT, 5.60 kg/h) | herbicidal rating (Velvetleaf [5]; 2 WAT, 1.12 kg/h) | herbicidal rating (Velvetleaf [5]; 4 WAT, 5.60 kg/h) | herbicidal rating (Wheat; 2 WAT, 1.12 kg/h) | herbicidal rating (Soybean; 2 WAT, 1.12 kg/h) | herbicidal rating (Soybean; 4 WAT, 5.60 kg/h) | herbicidal rating (Wild Buckwheat; 2 WAT, 1.12 kg/h) | herbicidal rating (Wild Buckwheat; 4 WAT, 5.60 kg/h) | herbicidal rating (Sugarbeet; 4 WAT, 5.60 kg/h) | herbicidal rating (Hemp Sesbania; 2 WAT, 1.12 kg/h) | herbicidal rating (Cocklebur [11]; 4 WAT, 1.12 kg/h) | herbicidal rating (Lambsquarters [12]; 4 WAT, 1.12 kg/h) | herbicidal rating (Velvetleaf [14]; 4 WAT, 1.12 kg/h) | herbicidal rating (Downy Brome [15]; 4 WAT, 1.12 kg/h)
57 % of Control: Height ([9]; 250 ppm, 9 weeks after treatment)
93 % of Control: Height ([9]; 10 ppm, 9 weeks after treatment) | Plant Height (cheyenne wheat; time of treatment 15 days, 250 ppm, 6 weeks after treatment) | Plant Height (harber barley; [18])
4 (100): herbicidal rating (Smartweed; 4 WAT, 11.2 kg/h) | herbicidal rating (Lambsquarters [3]; 4 WAT, 11.2 kg/h)
90 % of Control: Plant Height (harber barley; time of treatment 16 days, 250 ppm, 3 weeks after treatment) | Plant Height (harber barley; [20])
106 % of Control: Plant Height (harber barley; [19])
109 % of Control: Plant Height (cheyenne wheat; [20])
66 % of Control: Height ([9]; 250 ppm, 3 weeks after treatment)
0 (0-24): herbicidal rating (Downy Brome [6]; 2 WAT, 1.12 kg/h) | herbicidal rating (Downy Brome [6]; 4 WAT, 5.60 kg/h) | herbicidal rating (Barnyardgrass [7]; 2 WAT, 1.12 kg/h) | herbicidal rating (Barnyardgrass [7]; 4 WAT, 5.60 kg/h) | herbicidal rating (Yellow Nutsedge [8]) | herbicidal rating (Wheat; 4 WAT, 5.60 kg/h) | herbicidal rating (Sorghum; 2 WAT, 1.12 kg/h) | herbicidal rating (Sorghum; 4 WAT, 5.60 kg/h) | herbicidal rating (Panicum Spp.; 2 WAT, 1.12 kg/h) | herbicidal rating (Panicum Spp.; 4 WAT, 5.60 kg/h) | herbicidal rating (Rice; 2 WAT, 1.12 kg/h) | herbicidal rating (Rice; 4 WAT, 5.60 kg/h) | herbicidal rating (Sugarbeet; 2 WAT, 1.12 kg/h) | herbicidal rating (Hemp Sesbania; 4 WAT, 5.60 kg/h) | herbicidal rating (Crabgrass; 2 WAT, 1.12 kg/h) | herbicidal rating (Crabgrass; 4 WAT, 5.60 kg/h)
113 % of Control: Plant Height (cheyenne wheat; [18])
112 % of Control: Plant Height (cheyenne wheat; [19])
94 % of Control: Height ([9]; 50 ppm, 3 weeks after treatment)
86 % of Control: Height ([9]; 50 ppm, 9 weeks after treatment)

Source: patent publication US4229204A, “Trifluoromethylphenyl isoxazolyl benzoates” (Monsanto Company, priority 1978, dated 1980)
